Results taken from patent US7511144B2, “Reverse hydroxamic acid derivatives” (Kaken Pharmaceutical Co., Ltd., priority 2001, dated 2009).

Key:
Type in all cases: biochemical
TACE = target: T1, TACE (Homo sapiens, UniProt P78536); assay: TACE inhibition experiment (in vitro)
T1 construct: made in house; host or cells: mammalian cells or insect cells

Human MMP1 = target: T2, Human MMP1 (Homo sapiens, UniProt P03956); assay: MMP1 inhibition experiment; details: read-out: IC50 value MMP-1
T2 construct: purchased Calbiochem 444208
T2 sequence (P03956 100-469): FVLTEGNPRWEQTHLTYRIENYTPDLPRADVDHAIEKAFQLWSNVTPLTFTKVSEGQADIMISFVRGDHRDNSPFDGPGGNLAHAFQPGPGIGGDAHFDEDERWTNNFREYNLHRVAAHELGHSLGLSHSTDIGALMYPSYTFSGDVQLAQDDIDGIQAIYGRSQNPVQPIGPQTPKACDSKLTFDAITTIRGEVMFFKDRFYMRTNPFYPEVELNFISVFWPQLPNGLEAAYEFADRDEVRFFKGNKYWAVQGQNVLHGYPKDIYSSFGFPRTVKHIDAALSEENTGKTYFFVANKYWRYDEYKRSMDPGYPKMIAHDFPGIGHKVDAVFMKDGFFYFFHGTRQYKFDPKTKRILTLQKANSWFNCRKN

Human MMP2 = target: T3, Human MMP2 (Homo sapiens, UniProt P08253); assay: MMP2 inhibition experiment; details: concentration required for 50% inhibition of enzyme activity; read-out: IC50 value MMP-2
T3 construct: purchased Calbiochem 444213
T3 sequence (P08253 110-660): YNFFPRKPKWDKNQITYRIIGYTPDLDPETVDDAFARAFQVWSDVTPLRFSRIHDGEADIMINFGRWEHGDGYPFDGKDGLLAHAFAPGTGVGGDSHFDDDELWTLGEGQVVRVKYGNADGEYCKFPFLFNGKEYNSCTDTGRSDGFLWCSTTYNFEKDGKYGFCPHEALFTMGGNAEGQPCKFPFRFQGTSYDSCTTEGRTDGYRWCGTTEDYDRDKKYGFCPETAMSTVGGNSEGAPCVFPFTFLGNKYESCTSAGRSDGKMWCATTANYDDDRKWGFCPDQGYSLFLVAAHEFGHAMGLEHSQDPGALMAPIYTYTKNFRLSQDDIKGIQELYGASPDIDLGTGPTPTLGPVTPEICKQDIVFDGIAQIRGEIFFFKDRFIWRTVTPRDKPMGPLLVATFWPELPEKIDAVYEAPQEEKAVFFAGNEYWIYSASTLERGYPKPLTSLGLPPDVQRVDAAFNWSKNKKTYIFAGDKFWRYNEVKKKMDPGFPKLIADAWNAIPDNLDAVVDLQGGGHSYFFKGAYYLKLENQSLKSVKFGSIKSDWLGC

Human MMP3 = target: T4, Human MMP3 (Homo sapiens, UniProt P08254); assay: MMP3 inhibition experiment; details: concentration required for 50% inhibition of enzyme activity; read-out: IC50 value MMP-3
T4 construct: purchased Calbiochem 444217
Description: (§1) MMP inhibition experiment may be carried out using a fluorescent synthetic substrate according to, for example, the methods of Bickett et al. (D. Mark Bickett et al., Anal. Biochem., 1993, 212, 58-64) and Nagase et al. (H. Nagase et al., J. Biol. Chem., 1994, 269, 20952-20957). The methods of inhibition experiments carried out for various MMPs are described below.
Human MMP3 (Calbiochem #444217) in 90 μL (5 ng) prepared in the assay buffer A was added to 90 μL of 20 μM fluorescent substrate NFF-3(MOCAc-Arg-Pro-Lys-Pro-Val-Glu-Nva-Trp-Arg-Lys(Dnp)-NH2, Peptide Institute, Inc., #3168-v) prepared in the assay buffer B, followed by reaction for 5 hours at 37° C.

Human MMP9 = target: T5, Human MMP9 (Homo sapiens, UniProt P14780); assay: MMP9 inhibition experiment; details: read-out: IC50 value MMP-9
T5 construct: purchased Calbiochem 444231

Human MMP13 = target: T6, Human MMP13 (Homo sapiens, UniProt P45452); assay: MMP13 inhibition experiment; details: concentration required for 50% inhibition of enzyme activity; read-out: IC50 value MMP-13
T6 construct: purchased Chemicon CC068

Human MMP14 = target: T7, Human MMP14 (Homo sapiens, UniProt P50281); assay: MMP14 inhibition experiment; details: concentration required for 50% inhibition of enzyme activity; read-out: IC50 value MMP-14
T7 construct: purchased Biogenesis or Calbiochem 5980-1461 or 475935
Description: as §1
Human MMP14 (Biogenesis #5980-1461 or Calbiochem #475935) in amount of 90 μL (4 ng) prepared in the assay buffer A was added to 90 μL of 20 μM fluorescent substrate (Dnp-Pro-Cha-Gly-Cys(Me)-His-Ala-Lys(Nma)-NH2) prepared in the assay buffer B, followed by reaction for 5 hours at 37° C.

Human MMP17 = target: T8, Human MMP17 (Homo sapiens, UniProt Q9ULZ9); assay: MMP17 inhibition test; details: concentration required for 50% inhibition of enzyme activity; read-out: IC50 value MMP-17
T8 construct: purchased Calbiochem 475940
T8 sequence (Q9ULZ9 126-300 limits assumed): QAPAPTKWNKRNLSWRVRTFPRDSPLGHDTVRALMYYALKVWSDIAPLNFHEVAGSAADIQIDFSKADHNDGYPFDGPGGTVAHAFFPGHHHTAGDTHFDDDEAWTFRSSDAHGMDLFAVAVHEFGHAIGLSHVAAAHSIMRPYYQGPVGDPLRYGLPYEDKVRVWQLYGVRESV

T1 sequence (P78536 215-824): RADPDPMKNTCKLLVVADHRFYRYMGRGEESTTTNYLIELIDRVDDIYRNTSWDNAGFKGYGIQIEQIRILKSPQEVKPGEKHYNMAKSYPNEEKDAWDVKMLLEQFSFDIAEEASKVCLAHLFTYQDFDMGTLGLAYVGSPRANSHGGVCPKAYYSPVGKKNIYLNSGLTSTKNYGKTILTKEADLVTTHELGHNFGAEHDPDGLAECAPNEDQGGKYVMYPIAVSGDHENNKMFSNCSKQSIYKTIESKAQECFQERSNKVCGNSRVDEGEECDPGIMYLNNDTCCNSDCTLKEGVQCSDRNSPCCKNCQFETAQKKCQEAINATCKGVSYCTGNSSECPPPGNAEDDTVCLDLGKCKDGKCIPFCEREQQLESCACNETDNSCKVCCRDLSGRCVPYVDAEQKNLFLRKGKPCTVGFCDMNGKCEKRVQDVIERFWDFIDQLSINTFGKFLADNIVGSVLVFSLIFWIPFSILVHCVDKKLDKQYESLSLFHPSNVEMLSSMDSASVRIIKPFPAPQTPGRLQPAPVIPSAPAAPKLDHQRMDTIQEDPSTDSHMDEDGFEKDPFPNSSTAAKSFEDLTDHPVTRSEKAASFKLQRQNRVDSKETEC
T5 sequence (P14780 107-707 limits assumed): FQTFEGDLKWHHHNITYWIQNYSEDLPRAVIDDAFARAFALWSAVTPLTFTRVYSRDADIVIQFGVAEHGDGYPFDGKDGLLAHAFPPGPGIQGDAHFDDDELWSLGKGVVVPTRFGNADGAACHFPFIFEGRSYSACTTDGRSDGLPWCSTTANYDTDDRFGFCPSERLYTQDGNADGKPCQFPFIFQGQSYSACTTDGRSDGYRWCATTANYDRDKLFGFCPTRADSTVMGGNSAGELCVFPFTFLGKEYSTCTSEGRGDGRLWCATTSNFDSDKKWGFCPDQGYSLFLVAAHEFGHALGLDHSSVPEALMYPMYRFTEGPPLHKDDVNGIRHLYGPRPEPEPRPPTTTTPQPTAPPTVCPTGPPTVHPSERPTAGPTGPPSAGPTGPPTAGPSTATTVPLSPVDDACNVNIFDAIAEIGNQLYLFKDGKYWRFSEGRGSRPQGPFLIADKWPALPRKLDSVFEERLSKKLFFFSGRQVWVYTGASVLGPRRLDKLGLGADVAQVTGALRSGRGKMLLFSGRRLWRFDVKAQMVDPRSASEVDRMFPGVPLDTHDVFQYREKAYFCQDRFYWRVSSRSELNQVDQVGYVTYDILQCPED
T4 sequence (P08254 100-272 limits assumed): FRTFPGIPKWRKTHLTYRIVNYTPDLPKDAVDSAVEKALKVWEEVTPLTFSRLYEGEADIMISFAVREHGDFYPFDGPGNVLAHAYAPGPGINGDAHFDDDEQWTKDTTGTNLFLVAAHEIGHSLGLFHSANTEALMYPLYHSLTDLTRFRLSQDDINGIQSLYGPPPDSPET

Compound | IC50 (TACE) [µM] | IC50 (Human MMP1) [µM] | IC50 (Human MMP2) [µM] | IC50 (Human MMP3) [µM] | IC50 (Human MMP9) [µM] | IC50 (Human MMP13) [µM] | IC50 (Human MMP14) [µM] | IC50 (Human MMP17) [µM]
Cc1cc(COc2ccc(S(=O)(=O)CC(CN3CCN(CC(C)C)CC3)N(O)C=O)cc2)c2ccccc2n1 (centres unmarked) [Example I-46] | 0.022 | > 100 | 20 | 4.4 | > 100 | 42 | > 100 | 0.65
Cc1ccc2nc(C)cc(COc3ccc(S(=O)(=O)CC(CC4CCC(=NO)CC4)N(O)C=O)cc3)c2c1 (centres unmarked) [Example I-76] | 0.005 | 40 | 10 | 0.8 | 40 | 6 | 31 | 1.6
Cc1cc(C)cc(COc2ccc(S(=O)(=O)CC(C=C3CCC4(CC3)OCCO4)N(O)C=O)cc2)c1 (centres unmarked) [Example I-91] | 0.4 | > 100 | 43 | 35 | 33 | 35 | 40 | 40
Cc1cc(C)cc(COc2ccc(S(=O)(=O)CC(C=C3CCC(=O)CC3)N(O)C=O)cc2)c1 (centres unmarked) [Example I-92] | 0.3 | > 100 | 43 | 60 | 60 | 35 | > 100 | 40
COc1cc(C)cc(COc2ccc(S(=O)(=O)CC(CC3CCC4(CC3)OCCO4)N(O)C=O)cc2)c1 (centres unmarked) [Example I-93] | 0.3 | 60 | 10 | 15 | 30 | 12 | 33 | 20
COc1cc(C)cc(COc2ccc(S(=O)(=O)CC(C=C3CCC(=O)CC3)N(O)C=O)cc2)c1 (centres unmarked) [Example I-94] | 0.08 | 90 | 23 | 21 | 40 | 20 | 40 | 22
COc1cc(C)cc(COc2ccc(S(=O)(=O)CC(C=C3CCC4(CC3)OCCO4)N(O)C=O)cc2)c1 (centres unmarked) [Example I-95] | 1.5 | > 100 | > 100 | > 100 | > 100 | > 100 | > 100 | > 100
Cc1cc(Cl)cc(COc2ccc(S(=O)(=O)CC(C3CCC4(CC3)OCCO4)N(O)C=O)cc2)c1 (centres unmarked) [Example I-98] | 0.08 | 50 | 2 | 1.2 | 20 | 2 | 7 | 1.6
Cc1cc(Cl)cc(COc2ccc(S(=O)(=O)CC(CC3CCC4(CC3)OCCO4)N(O)C=O)cc2)c1 (centres unmarked) [Example I-99] | 1.1 | 40 | 5 | 6 | 20 | 18 | 25 | 13
Cc1cc(Cl)cc(COc2ccc(S(=O)(=O)CC(CC3CCC(=NO)CC3)N(O)C=O)cc2)c1 (centres unmarked) [Example I-100] | 0.2 | 43 | 4 | 7 | 23 | 6 | 25 | 7
Cc1cc(Cl)cc(COc2ccc(S(=O)(=O)CC(CC3CCC(=O)CC3)N(O)C=O)cc2)c1 (centres unmarked) [Example I-101] | 0.12 | 40 | 2.3 | 7 | 20 | 3 | 20 | 5

The remaining lines, values ahead:

IC50 (TACE) [µM] | IC50 (Human MMP1) [µM] | IC50 (Human MMP2) [µM] | IC50 (Human MMP3) [µM] | IC50 (Human MMP9) [µM] | IC50 (Human MMP13) [µM] | IC50 (Human MMP14) [µM] | IC50 (Human MMP17) [µM] | Compound
0.13 | 80 | 20 | 25 | 40 | 16 | 33 | 30 | Cc1cc(Cl)cc(COc2ccc(S(=O)(=O)CC(C=C3CCC(=NO)CC3)N(O)C=O)cc2)c1 (centres unmarked) [Example I-102]
0.5 | 60 | 38 | 30 | 38 | 25 | 33 | 40 | Cc1cc(Cl)cc(COc2ccc(S(=O)(=O)CC(C=C3CCC4(CC3)OCCO4)N(O)C=O)cc2)c1 (centres unmarked) [Example I-103]
0.05 | > 100 | 4.1 | 30 | > 100 | 8 | > 100 | 30 | Cc1cc(COc2ccc(S(=O)(=O)CC(C=C3CCC(=NO)CC3)N(O)C=O)cc2)cc(C)n1 (centres unmarked) [Example I-111]
0.063 | > 100 | 1.3 | 4 | 40 | 2 | 60 | 4 | Cc1cc(COc2ccc(S(=O)(=O)CC(CC3CCC(=NO)CC3)N(O)C=O)cc2)cc(C)n1 (centres unmarked) [Example I-112]
0.13 | 60 | 2 | 8 | 70 | 2.3 | 60 | 6 | Cc1cc(COc2ccc(S(=O)(=O)CC(CC3CCC(=O)CC3)N(O)C=O)cc2)cc(C)n1 (centres unmarked) [Example I-113]
0.1 | > 100 | 7 | 23 | > 100 | 10 | > 100 | 30 | Cc1cc(COc2ccc(S(=O)(=O)CC(C=C3CCC(=O)CC3)N(O)C=O)cc2)cc(C)n1 (centres unmarked) [Example I-114]
0.63 | > 100 | > 100 | > 100 | > 100 | > 100 | > 100 | > 100 | Cc1cc(COc2ccc(S(=O)(=O)CC(C=C3CCSCC3)N(O)C(N)=O)cc2)c2ccccc2n1 (centres unmarked) [Example I-125, 1-hydroxy-1-{2-[4-(2-methylquinolin-4-ylmethoxy)benzenesulfonyl]-1-(tetrahydrothiopyran-4-ylidenemethyl)ethyl}urea]
0.31 | > 100 | > 100 | 12 | > 100 | 70 | > 100 | 6.3 | CC(=O)N(O)C(C=C1CCSCC1)CS(=O)(=O)c1ccc(OCc2cc(C)nc3ccccc23)cc1 (centres unmarked) [Example I-126, N-hydroxy-N-{2-[4-(2-methylquinolin-4-ylmethoxy)benzenesulfonyl]-1-(tetrahydrothipyran-4-ylidenemethyl)ethyl}acetamide]
